Measured values reported in ChEMBL document CHEMBL1201862, “PubChem BioAssay data set” (2004).
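96-well plates; 48 h exposure; 5 concentrations. Endpoints by linear interpolation between flanking doses. Not reached: highest tested concentration assigned. GI50 is the concentration that inhibits growth by half.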 Activity calls are given as the source filed them. Cut-off read from the data, not from the text of the source: active = GI50 up to about 1.1 µM and inactive = higher.

Assays:
Experiment in all cases: NCI anticancer screen, dose series, 48 h
[1] = test system: LOX IMVI
[2] = test system: A549
[3] = test system: KM12
[4] = test system: BT-549
[5] = test system: A498
[6] = test system: SF-539
[7] = test system: MOLT-4
[8] = test system: HL-60
[9] = test system: HT-29
[10] = test system: UACC-62
[11] = test system: 786-0
[12] = test system: EKVX
[13] = test system: SW-620
[14] = test system: SK-MEL-5
[15] = test system: NCI-H522
[16] = test system: HCT-15
[17] = test system: OVCAR-4
[18] = test system: SK-OV-3
[19] = test system: HOP-92
[20] = test system: M14
[21] = test system: SK-MEL-2
[22] = test system: CCRF-CEM
[23] = test system: NCI-H226
[24] = test system: SK-MEL-28
[25] = test system: OVCAR-5
[26] = test system: Hs-578T
[27] = test system: HCT-116
[28] = test system: MDA-MB-231
[29] = test system: OVCAR-8
[30] = test system: OVCAR-3
[31] = test system: T47D
[32] = test system: NCI/ADR-RES
[33] = test system: SR
[34] = test system: SNB-75
[35] = test system: TK-10
[36] = test system: SF-268
[37] = test system: DU-145
[38] = test system: SN12C
[39] = test system: K562
[40] = test system: Malme-3M
[41] = test system: RXF 393
[42] = test system: UACC-257
[43] = test system: NCI-H23
[44] = test system: MDA-N
[45] = test system: MCF7
[46] = test system: PC-3
[47] = test system: HOP-62
[48] = test system: RPMI-8226
[49] = test system: HCC 2998
[50] = test system: ACHN
[51] = test system: IGROV-1
[52] = test system: U-251
[53] = test system: CAKI-1
[54] = test system: MDA-MB-435
[55] = test system: NCI-H460
[56] = test system: SF-295
[57] = test system: COLO 205
[58] = test system: SNB-19
[59] = test system: UO-31

## CN(C)CC1CN(C(=O)Nc2ccccc2)C(=N)O1 (centres undefined)
[1]
  GI50: > 100 µM (inactive)
[2]
  GI50: > 100 µM (inactive)
[3]
  GI50: > 100 µM (inactive)
[4]
  GI50: > 100 µM (inactive)
[5]
  GI50: > 100 µM (inactive)
[6]
  GI50: > 100 µM (inactive)
[7]
  GI50: > 100 µM (inactive)
[8]
  GI50: > 100 µM (inactive)
[9]
  GI50: > 100 µM (inactive)
[10]
  GI50: > 100 µM (inactive)
[11]
  GI50: > 100 µM (inactive)
[12]
  GI50: > 100 µM (inactive)
[13]
  GI50: > 100 µM (inactive)
[14]
  GI50: > 100 µM (inactive)
[15]
  GI50: > 100 µM (inactive)
[16]
  GI50: > 100 µM
[17]
  GI50: > 100 µM (inactive)
[18]
  GI50: > 100 µM (inactive)
[19]
  GI50: > 100 µM (inactive)
[20]
  GI50: > 100 µM (inactive)
[21]
  GI50: > 100 µM (inactive)
[22]
  GI50: > 100 µM (inactive)
[23]
  GI50: > 100 µM (inactive)
[24]
  GI50: > 100 µM (inactive)
[25]
  GI50: > 100 µM (inactive)
[26]
  GI50: > 100 µM (inactive)
[27]
  GI50: > 100 µM (inactive)
[28]
  GI50: > 100 µM (inactive)
[29]
  GI50: > 100 µM (inactive)
[30]
  GI50: > 100 µM (inactive)
[31]
  GI50: > 100 µM (inactive)
[32]
  GI50: > 100 µM (inactive)
[33]
  GI50: > 100 µM (inactive)
[34]
  GI50: > 100 µM (inactive)
[35]
  GI50: > 100 µM (inactive)
[36]
  GI50: > 100 µM (inactive)
[37]
  GI50: 38.2 µM (inactive)
[38]
  GI50: > 100 µM (inactive)
[39]
  GI50: > 100 µM (inactive)
[40]
  GI50: > 100 µM (inactive)
[41]
  GI50: > 100 µM (inactive)
[42]
  GI50: > 100 µM (inactive)
[43]
  GI50: > 100 µM (inactive)
[44]
  GI50: 83.2 µM (inactive)
[45]
  GI50: > 100 µM (inactive)
[46]
  GI50: > 100 µM (inactive)
[47]
  GI50: > 100 µM (inactive)
[48]
  GI50: > 100 µM (inactive)
[49]
  GI50: > 100 µM (inactive)
[50]
  GI50: > 100 µM (inactive)
[51]
  GI50: > 100 µM (inactive)
[52]
  GI50: > 100 µM (inactive)
[53]
  GI50: > 100 µM (inactive)
[54]
  GI50: > 100 µM (inactive)
[55]
  GI50: > 100 µM (inactive)
[56]
  GI50: > 100 µM (inactive)
[57]
  GI50: > 100 µM (inactive)
[58]
  GI50: > 100 µM (inactive)
[59]
  GI50: > 100 µM (inactive)
